# Source: patent US9868746B2, “Substituted 5-aminothieno[2,3-C]pyridazine-6-carboxamide analogs as positive allosteric modulators of the muscarinic acetylcholine receptor M4” (Vanderbilt University, priority 2012, dated 2018)
# Where two headings read alike, the source gives them in different places.
# Target: T1, mAChR M4 (Homo sapiens, UniProt P08173)
# T1 construct: expressed in transfected cells; host or cells: CHO-K1 cells stably transfected with M4 cDNA and chimeric G-protein Gqi5
# T1 sequence (P08173 1-479): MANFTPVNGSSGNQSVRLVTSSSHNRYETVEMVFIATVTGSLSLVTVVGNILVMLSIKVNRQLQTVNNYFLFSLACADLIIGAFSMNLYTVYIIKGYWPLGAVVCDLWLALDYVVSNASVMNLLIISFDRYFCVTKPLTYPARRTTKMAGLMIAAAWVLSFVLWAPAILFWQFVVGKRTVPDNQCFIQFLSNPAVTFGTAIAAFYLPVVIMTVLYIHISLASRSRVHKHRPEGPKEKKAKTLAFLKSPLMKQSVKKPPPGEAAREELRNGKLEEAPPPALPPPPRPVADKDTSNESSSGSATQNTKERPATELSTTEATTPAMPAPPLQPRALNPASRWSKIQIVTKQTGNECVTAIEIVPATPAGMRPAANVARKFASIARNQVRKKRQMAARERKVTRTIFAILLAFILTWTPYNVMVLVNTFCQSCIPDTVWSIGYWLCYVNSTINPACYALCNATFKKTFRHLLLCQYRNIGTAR
# Test: mAChR M4 cell-based functional assay (calcium mobilization, potentiation of EC20 acetylcholine response)
# Conditions: for Emax at 30 µM / Emax (%)*: % ACh maximum at 30 μM
# [1] = mAChR M4 cell-based functional assay, >10,000 estimated for low potency compounds without plateau, read-out: EC50
SMILES,Emax at 30 µM [%],EC50 [1] [nM],Emax (%)* [%],EC50 (EC50 (nM)) [nM]
CCCOC(=O)NC1CN(C(=O)c2sc3nnc(C)c(C)c3c2N)C1 [Example B178],60,1700,,
Cc1nnc2sc(C(=O)NCc3ccncn3)c(N)c2c1C [Example B17],83,> 10000,,
Cc1ccc(CNC(=O)c2sc3nnc(C)c(C)c3c2N)nc1 [Example B470],48,510,,
Cc1nnc2sc(C(=O)NC3CCN(S(=O)(=O)c4ccccc4OC(F)(F)F)C3)c(N)c2c1C (centres unmarked) [Example B209],68,310,,
Cc1nnc2sc(C(=O)N3CCC(NC(=O)c4ccccn4)C3)c(N)c2c1C (centres unmarked) [Example B240],53,> 10000,,
Cc1nnc2sc(C(=O)N3CC(C)(F)C3)c(N)c2c1C [Example B302],73,860,,
Cc1nnc2sc(C(=O)NCc3ccc(CN4CCOCC4)cc3)c(N)c2c1C [Example B441],79,80,,
Cc1nnc2sc(C(=O)N[C@H]3CCN(c4ccccc4)C3)c(N)c2c1C [Example B193],63,14,,
"Cc1nnc2sc(C(=O)NCc3ccc([S+]([O-])C(F)F)cc3)c(N)c2c1C (single isomer, unassigned) [Example B510]",,500,70,
Cc1nnc2sc(C(=O)NCc3ccc4nonc4c3)c(N)c2c1C [Example B43],75,270,,
Cc1nnc2sc(C(=O)NCc3c(F)ccc(F)c3Cl)c(N)c2c1C [Example B85],58,47,,
Cc1nnc2sc(C(=O)NC3CN(S(=O)(=O)c4cccc(Cl)c4F)C3)c(N)c2c1C [Example B139],65,54,,
Cc1nnc2sc(C(=O)Nc3ccc4cn[nH]c4c3)c(N)c2c1C [Example B67],51,350,,
COc1ccc(S(=O)(=O)N2CC(NC(=O)c3sc4nnc(C)c(C)c4c3N)C2)cc1 [Example B144],87,140,,
Cc1nnc2sc(C(=O)N3CC(NC(=O)C4CC4)C3)c(N)c2c1C [Example B166],41,3100,,
Cc1nnc2sc(C(=O)NCCc3ccccn3)c(N)c2c1C [Example B94],47,5000,,
Cc1nnc2sc(C(=O)NC3CN(C(=O)c4ccc5ccccc5c4)C3)c(N)c2c1C [Example B130],79,97,,
Cc1nnc2sc(C(=O)N3CC(F)(c4ccc(Cl)cc4)C3)c(N)c2c1C [Example B295],54,> 10000,,
Cc1nnc2sc(C(=O)NC3CN(C(=O)Nc4ccccc4)C3)c(N)c2c1C [Example B362],64,18,,
"Cc1nnc2sc(C(=O)NCc3ccc(C(C)(O)C(F)(F)F)cc3)c(N)c2c1C (single isomer, unassigned) [Example B187]",,20,84,
Cc1nnc2sc(C(=O)N3CCC4(CN(C(=O)OC(C)(C)C)C4)C3)c(N)c2c1C [Example B194],30,4700,,
Cc1nnc2sc(C(=O)NC3CN(C(=O)Oc4ccc(C(F)(F)F)cc4)C3)c(N)c2c1C [Example B356],61,25,,

SMILES,Emax at 30 µM [%],EC50 [1] [nM],Emax (%)* [%],EC50 (EC50 (nM)) [nM]
COc1ccc(C2CC2NC(=O)c2sc3nnc(C)c(C)c3c2N)cc1 (centres unmarked) [Example B30],76,14,,
Nc1c(C(=O)NCc2ccccc2)sc2nnccc12 [Example B19],53,> 10000,,
Cc1nnc2sc(C(=O)NCc3ccc(CN4CCCC4)cc3)c(N)c2c1C [Example B492],76,38,,
Cc1nnc2sc(C(=O)NCc3ccc(OC(F)F)cn3)c(N)c2c1C [Example B480],74,> 10000,,
Cc1ccccc1OC(=O)N1CC(NC(=O)c2sc3nnc(C)c(C)c3c2N)C1 [Example B361],76,11,,
Cc1nnc2sc(C(=O)N3CCc4nn(C)cc4C3)c(N)c2c1C [Example B380],34,> 10000,,
COCCOCCNC(=O)c1sc2nnc(C)c(C)c2c1N [Example B199],52,> 10000,,
Cc1nnc2sc(C(=O)N3CC(c4ccccc4)(N(C)C)C3)c(N)c2c1C [Example B322],42,2200,,
Cc1nnc2sc(C(=O)N3CCC(NC(=O)CCc4ccccc4)C3)c(N)c2c1C (centres unmarked) [Example B249],48,> 10000,,
Cc1nnc2sc(C(=O)N3CC(F)(c4cccc(-c5ccncc5)c4)C3)c(N)c2c1C [Example B323],44,87,,
Nc1c(C(=O)NCc2ccc(S(=O)(=O)C(F)(F)F)cc2)sc2nnc3c(c12)CCCC3 [Example B189],42,420,,
Cc1nnc2sc(C(=O)NCc3ccc(-c4cnc5ccccc5c4)cc3)c(N)c2c1C [Example B497],46,710,,
Cc1nnc2sc(C(=O)NC3CNC3)c(N)c2c1C [Example B81],34,> 10000,,
Cc1nnc2sc(C(=O)NCc3ccc(-n4cccn4)cc3)c(N)c2c1C [Example B506],70,150,,
Cc1nnc2sc(C(=O)NC3CN(C(=O)c4ccncc4)C3)c(N)c2c1C [Example B150],62,190,,
Cc1nnc2sc(C(=O)NCC3CN(C(=O)OC(C)(C)C)C3)c(N)c2c1C [Example B197],35,> 10000,,
Cc1nnc2sc(C(=O)NCc3ccc(S(F)(F)(F)(F)F)cc3)c(N)c2c1C [Example B297],76,,,30
Cc1nnc2sc(C(=O)N3CCC(O)(c4ccccc4)C3)c(N)c2c1C (centres unmarked) [Example B279],48,4300,,
Cc1nnc2sc(C(=O)N3CCC(NS(=O)(=O)c4cncn4C)C3)c(N)c2c1C (centres unmarked) [Example B202],69,3800,,
COCc1ccc(CNC(=O)c2sc3nnc(C)c(C)c3c2N)cc1 [Example B91],53,97,,
COc1ccc(OC(=O)N2CC(NC(=O)c3sc4nnc(C)c(C)c4c3N)C2)cc1 [Example B334],69,13,,
Cc1nnc2sc(C(=O)NCCNC(=O)OCc3ccccc3)c(N)c2c1C [Example B345],64,3600,,

SMILES,Emax at 30 µM [%],EC50 [1] [nM],Emax (%)* [%],EC50 (EC50 (nM)) [nM]
CCCOC(=O)N1CCC(NC(=O)c2sc3nnc(C)c(C)c3c2N)C1 (centres unmarked) [Example B224],77,610,,
Cc1nnc2sc(C(=O)N3CCC(NC(=O)OCc4ccccc4)C3)c(N)c2c1C (centres unmarked) [Example B220],67,830,,
Cc1nnc2sc(C(=O)N3CC(F)(CCC4OCCCO4)C3)c(N)c2c1C [Example B291],46,> 10000,,
Cc1nnc2sc(C(=O)N3CC(F)(c4cccnc4)C3)c(N)c2c1C [Example B308],42,850,,
Cc1nnc2sc(C(=O)NC3CN(C(=O)OCCN(C)C)C3)c(N)c2c1C [Example B341],74,120,,
Cc1nnc2sc(C(=O)NC3CN(S(=O)(=O)c4ccccc4F)C3)c(N)c2c1C [Example B140],72,43,,
COc1cccc(C(=O)N2CCC(NC(=O)c3sc4nnc(C)c(C)c4c3N)C2)c1 (centres unmarked) [Example B231],78,230,,
Cc1nnc2sc(C(=O)NC3CN(C(=O)OC(C)(C)C)C3)c(N)c2c1C [Example B83],58,29,,
Cc1nnc2sc(C(=O)NCc3ccc4c(c3)OCCO4)c(N)c2c1C [Example B29],76,30,,
Cc1nnc2sc(C(=O)NCc3ccc(N(C)C)cc3)c(N)c2c1C [Example B449],71,69,,
Nc1c(C(=O)NCc2cccc(F)c2F)sc2nnc3c(c12)CCCC3 [Example B57],47,100,,
COc1cccc(S(=O)(=O)NC2CCN(C(=O)c3sc4nnc(C)c(C)c4c3N)C2)c1 (centres unmarked) [Example B213],65,4500,,
CC(=O)N1CC(NC(=O)c2sc3nnc(C)c(C)c3c2N)C1 [Example B134],67,520,,
Cc1nnc2sc(C(=O)NCc3cccc(S(C)(=O)=O)c3)c(N)c2c1C [Example B44],75,,,420
Cc1nnc2sc(C(=O)NCc3ccc(N4CCOCC4)cc3)c(N)c2c1C [Example B327],67,120,,
Cc1nnc2sc(C(=O)NC3CCN(C(=O)C4CC4c4ccccc4)C3)c(N)c2c1C (centres unmarked) [Example B247],73,390,,
Cc1nnc2sc(C(=O)NCc3ccc(S(=O)(=O)N(C)C)cc3)c(N)c2c1C [Example B450],65,65,,
CCOc1ccc(CNC(=O)c2sc3nnc(C)c(C)c3c2N)cc1 [Example B198],63,25,,
Cc1nnc2sc(C(=O)NCc3ccc(OCC(F)F)cc3)c(N)c2c1C [Example B176],73,23,,
Cc1nnc2sc(C(=O)N3CC4(C3)CN(C(=O)C3CCCC3)C4)c(N)c2c1C [Example B402],46,3300,,
